Test results reported in patent EP4245832B1, “DETERGENT COMPOSITIONS” (The Procter & Gamble Company, priority 2022, dated 2023).

Test: Laundry test followed by SPME GC/MS headspace analysis of cotton tracers
Settings: headspace of the perfume ingredient above wet cotton tracers, Ex 1 (PQ22) versus Ex A (nil-PQ22)
Protocol: 100% cotton fabric cut into 30x30cm squares were washed in a mixed cotton/polycotton load of total 3kg in a front load washing machine (Miele 1935) at 40°C cotton short setting, with 2 rinses, using 2.67 mmol/L Ca (15 gpg) water hardness. A 55 ml dose of the respective detergent was added to a dosing cup and placed inside the washing machine. After the wash cycle was finished, the full load was tumbled (using a Miele Novotronic, type: TD7634) for about 1 hour. Table 1: Inventive detergent composition (Ex 1) and comparative laundry detergent composition (Ex A) used in the laundry test:
The load was washed and dried three consecutive times, then placed back into a washing machine After a fourth wash cycle, the wet cotton tracers were separated and packed in aluminium foil until they were ready to be analysed for headspace.
The headspace was analysed using solid […] (SPME) chromatography using the following procedure: • 1. One piece of 4x4 cm cotton tracers were transferred to 25 ml headspace vials. • 2. The fabric samples were equilibrated for 10 minutes at 65°C. • 3. The headspace above the fabrics was sampled via SPME (50/30µm DVB/Carboxen/PDMS) for 5 minutes. • 4. The SPME fiber was subsequently thermally desorbed into the GC. • 5. The analytes were analyzed by GC/MS (GC: Agilent 8890 and MS: Agilent 5977B MS) in full scan mode. The total perfume HS response and perfume headspace composition above the tested legs could be determined.

First: 3-(3,3-dimethyl-2,3-dihydro-1H-inden-5-yl)propanal mixt. wth 3-(1,1-dimethyl-2,3-dihydro-1H-inden-5-yl)propanal [Neo Hivernal]
Second: C=CCOC(=O)COCCC(C)C [Allyl amyl glycolate, allyl 2-(isopentyloxy)acetate]
The “% increase Ex 1 vs Ex A” value of the first is lower: -58% for the first, 2003% for the second.

First: CC1=CCC2CC1C2(C)C (stereo not drawn) [Alpha pinene, 2,6,6-trimethylbicyclo(3.1.1)hept-2-ene]
Second: COc1ccc(C=O)cc1 [Anisic aldehyde, 4-methoxybenzaldehyde]
The “% increase Ex 1 vs Ex A” value of the first is lower: -33% for the first, 854% for the second.

Compared with `CC(=O)OCc1ccccc1` [Benzyl acetate, benzyl acetate], `COc1ccc2ccccc2c1` [Beta napthol methyl ether, 2-methoxynaphthalene] is lower in “% increase Ex 1 vs Ex A” value: 1840% for the first, 104% for the second.

Compared with `CC(C)=CCCC(C)CCO` (stereo not shown) [Citronellol, 3,7-dimethyloct-6-en-1-ol], `CC(C)=CCCC(C)CC#N` (stereo not shown) [Citronellyl nitrile, 3,7-dimethyloct-6-enenitrile] is higher in “% increase Ex 1 vs Ex A” value: 108% for the first, 457% for the second.

First: CC1/C=C/CCCCCCCCCCC(=O)C1 (stereo not shown) [Delta muscenone, (E)-3-methylcyclopentadec-4-en-1-one]
Second: CCOC(=O)C1=C(C)C=CCC1(C)C [Ethyl safranate, ethyl 2,6,6-trimethylcyclohexa-1,3-diene-1-carboxylate]
The “% increase Ex 1 vs Ex A” value of the first is lower: -27% for the first, 26% for the second.

First: O=C1CCCCCCCCCCCCCCO1 [Exaltolide total, oxacyclohexadecan-2-one]
Second: CC(C)c1cccc(C(C)CC=O)c1 (stereo not shown) [Florhydral, 3-(3-isopropylphenyl)butanal]
The “% increase Ex 1 vs Ex A” value of the first is higher: -33% for the first, -60% for the second.

Going from `CCC(=O)OCC(C)(C)OC(C)C1CCCC(C)(C)C1` (stereo not shown) [Helvetolide, 2-(1-(3,3-dimethylcyclohexyl)ethoxy)-2-methylpropyl propionate] to `CC(=O)/C=C/C1=C(C)CCCC1(C)C` [Ionone beta, (E)-4-(2,6,6-trimethylcyclohex-1-en-1-yl)but-3-en-2-one], the “% increase Ex 1 vs Ex A” value rises from -50% to 18%.

Compared with `CCCC(=O)OCCC(C)C` [Isoamyl butyrate, isopentyl butyrate], `C=C(C)C1CC=C(C)C(=O)C1` (stereo not shown) [Laevo carvone, 2-methyl-5-(prop-1-en-2-yl)cyclohex-2-en-1-one] is lower in “% increase Ex 1 vs Ex A” value: 8685% for the first, 468% for the second.

Compared with `CC(C=O)Cc1ccc(C(C)(C)C)cc1` (stereo not shown) [Lilial, 3-(4-(tert-butyl)phenyl)-2-methylpropanal], `C=CC(C)(O)CCC=C(C)C` (stereo not shown) [Linalool, 3,7-dimethylocta-1,6-dien-3-ol] is higher in “% increase Ex 1 vs Ex A” value: -55% for the first, 42% for the second.

Going from `C=CC(C)(CCC=C(C)C)OC(=O)CC` (stereo not shown) [Linalyl propionate, 3,7-dimethylocta-1,6-dien-3-yl propionate] to `CC(=O)c1ccc2ccccc2c1` [Methyl Beta-napthyl ketone, 1-(naphthalen-2-yl)ethan-1-one], the “% increase Ex 1 vs Ex A” value rises from -50% to 268%.

Compared with `COC(=O)c1ccccc1O` [Methyl salicylate, methyl 2-hydroxybenzoate], `CCCCCCCC=O` [Octyl Aldehyde, octanal] is lower in “% increase Ex 1 vs Ex A” value: 915% for the first, 16% for the second.

Compared with `COc1ccc(C)cc1` [Para cresyl methyl ether, 1-methoxy-4-methylbenzene], `CC(C)(O)CCc1ccccc1` [Phenyl ethyl dimethyl carbinol, 2-methyl-4-phenylbutan-2-ol] is lower in “% increase Ex 1 vs Ex A” value: 13731% for the first, 1106% for the second.

With `CCOC(=O)C1OC1(C)c1ccccc1` (stereo not shown) [Ethyl methyl phenyl glycidate, ethyl 3-methyl-3-phenyloxirane-2-carboxylate] the “% increase Ex 1 vs Ex A” value was “inf”.
